pIC50: −log10 of the molar value.

The nature of the test: Inhibition of Glycogen synthase kinase-3beta (GSK3-beta).

`O=C1NC(=O)C2=C1c1cn(c3ncccc13)CCOCCOCCn1cc2c2cccnc21` [17,20-dioxa-4,12,14,23,25-pentaazahexacyclo[21.6.1.17,14.02,6.08,13.024,29]hentriaconta-1(30),2(6),7(31),8,10,12,24,26,28-nonaene-3,5-dione]: the negative logarithm of the IC50 (pIC50) is 6.21.

As for `O=C1NC(=O)C2=C1c1cn(c3ccccc13)CCOCCOCCn1cc2c2cccnc21` [17,20-dioxa-4,12,14,23-tetraazahexacyclo[21.6.1.17,14.02,6.08,13.024,29]hentriaconta-1(30),2(6),7(31),8,10,12,24,26,28-nonaene-3,5-dione], the pIC50 was 6.86.

`O=C1NC(=O)C2=C1c1cn(c3ccccc13)CCOCCOCCOCCOCCOCCn1cc2c2ccccc21` [17,20,23,26,29-pentaoxa-4,14,32-triazahexacyclo[30.6.1.17,14.02,6.08,13.033,38]tetraconta-1(39),2(6),7(40),8,10,12,33,35,37-nonaene-3,5-dione] gave a negative logarithm of the IC50 (pIC50) of 7.29.

`O=C1NC(=O)C2=C1c1cn(c3ncccc13)CCOCCOCCOCCOCCOCCn1cc2c2cccnc21` [17,20,23,26,29-pentaoxa-4,12,14,32,34-pentaazahexacyclo[30.6.1.17,14.02,6.08,13.033,38]tetraconta-1(39),2(6),7(40),8,10,12,33,35,37-nonaene-3,5-dione] had a negative-log IC50 (pIC50) of 6.39.

The molecule `O=C1NC(=O)C2=C1c1cn(c3ccccc13)CCOCCOCCOCCOCCn1cc2c2ccccc21` [17,20,23,26-tetraoxa-4,14,29-triazahexacyclo[27.6.1.17,14.02,6.08,13.030,35]heptatriaconta-1(36),2(6),7(37),8,10,12,30,32,34-nonaene-3,5-dione] gave a pIC50 of 7.59.

In turn, `O=C1NC(=O)C2=C1c1cn(c3ccccc13)CCOCCOCCn1cc2c2ccccc21` [17,20-dioxa-4,14,23-triazahexacyclo[21.6.1.17,14.02,6.08,13.024,29]hentriaconta-1(30),2(6),7(31),8,10,12,24,26,28-nonaene-3,5-dione] showed a pIC50 of 6.87.

The molecule `O=C1NC(=O)C2=C1c1cn(c3ncccc13)CCOCCOCCOCCOCCn1cc2c2cccnc21` [17,20,23,26-tetraoxa-4,12,14,29,31-pentaazahexacyclo[27.6.1.17,14.02,6.08,13.030,35]heptatriaconta-1(36),2(6),7(37),8,10,12,30,32,34-nonaene-3,5-dione] showed a pIC50 of 7.32.

`O=C1NC(=O)C2=C1c1cn(c3ncccc13)CCOCCOCCOCCn1cc2c2cccnc21` [17,20,23-trioxa-4,12,14,26,28-pentaazahexacyclo[24.6.1.17,14.02,6.08,13.027,32]tetratriaconta-1(33),2(6),7(34),8,10,12,27,29,31-nonaene-3,5-dione] showed a pIC50 of 7.47.

The values above are taken from BindingDB's records for doi:10.1021/jm030115o (Johnson and Johnson Pharmaceutical Research and Development, 2003).
